In publication PMC6024615, “Effect of Biliary Drainage on the Toxicity and Toxicokinetics of Amanita exitialis in Beagles” (Toxins, 2018):

How the values were obtained:
[1] = Peptide toxins in the urine of beagles with biliary drainage; format: in vivo, beagle dogs; details: for Total (accumulated) amount excreted in urine / percentage of total urine excretion, Total: 0–4 days
Description: (§1) The study was approved by National Institute of Occupational Health and Poison Control review board for animal experiments. Twenty-four male beagles (age, 8–10 months; weight, 10 ± 1 kg) were obtained from Beijing Institute of Xieerxin Biology Resource (Beijing, China). They were randomly divided into four groups of six animals each: control, biliary drainage, and 20 and 60 mg/kg with biliary drainage groups. The biliary drainage operation was conducted in all groups barring the control group. The dogs were dressed in homemade underwear, coats, and Elizabeth circles for a week to ensure pre-experimental acclimatization (Figure S8a–c). After determining the baseline values for biochemical indicators, the dogs were fasted for 24 h but received water ad libitum. They were anesthetized by intravenous administration of pentobarbital sodium (3%, 1 mL/kg) during the surgery. A temperature of 38–39 °C was maintained with a warming mat. After skin preservation and sterilization, the abdominal cavity was opened through the central abdomen. The abdomen was explored and blunt dissection of the common bile duct was performed (Figure S8d). The common bile duct and its branches were ligated from the intestinal side. A 7.0-Fr drainage catheter (COOK, Bloomington, IN, USA) was percutaneously inserted into the gallbladder, and a medical drainage bag was connected to the drainage catheter coming out of the abdominal cavity. Each opened layer, including the peritoneum, abdominal wall muscle, and skin, was closed with suture. The operative incision was protected with sterile gauze and a bandage, and the dogs were dressed in homemade underwear, coats, and Elizabeth circles. The drainage bag was placed in the pocket of the coat (Figure S8e). After the anesthetic wore off, the dogs were placed in cages, and food and water were provided ad libitum. The operative incision was sterilized with iodophor twice a day until stitches were removed six days after surgery. The drainage bag was replaced every day. On the eighth day after surgery, the 20 and 60 mg/kg with biliary drainage groups were orally administered a lyophilized powder of Amanita exitialis in starch capsules. In control and bile drainage group, the beagle dogs were fed with empty capsules. Immediately after dosing, the animals were placed in their cages, and food and water were provided ad libitum. Dogs were sacrificed with an overdose of sodium pentobarbital at the end of the experiment. All procedures were performed according to the ethical standards of the National Institutes of Health Guide for Animal Welfare and approved by the Institutional Animal Care and Use Committee (EAWE-2017-005).
(§2) Peptide toxins in blood and urine samples were analyzed as described previously. Bile samples from Days 0–1, Days 1–2, Days 2–3, and Days 3–4 were collected and stored in medical drainage bags and the bile volume was recorded. Plasma and urine samples were stored at 2–8 °C until analysis for peptide toxins.
(§3) UPLC and MS/MS parameters were as described in our previous study. The limit of detection and limit of quantitation of each toxin in the bile were 0.03 mg/kg and 0.5 mg/kg, respectively.

[2] = Peptide toxins in the bile of beagles with biliary drainage; format: in vivo, beagle dogs; details: for Accumulated amounts excreted in bile / percentage of total bile excretion, Accumulated amounts: 0–4 days; for ratio of peptide toxins in bile to excretion in urine and bile: mean ± SD
Description: as §1, §2
α-Amanitin, β-amanitin, γ-amanitin, and phallacidin were used as the standard reference materials. Aliquots (0.2 mL) of bile samples were transferred into 2-mL polypropylene centrifuge tubes in duplicates. Next, 1 mL of acetonitrile was added to each tube. After vortex-mixing for 1 min, each sample was sonicated for 30 min and centrifuged at 11,200× g for 10 min at 4 °C. The supernatants were loaded on solid-phase extraction columns (Oasis PRiME HLB, 60 mg, 3 cc). The columns were then washed with 3 mL of methanol/ultrapure water (v/v: 5/95). The eluent was evaporated in a stream of nitrogen at room temperature. The dry residue was dissolved in 0.2 mL of ultrapure water and analyzed by UPLC-ESI-MS/MS.
as §3

[3] = 0-1 d, 60 mg/kg with biliary drainage group
[4] = 0–1 days, 20 mg/kg with biliary drainage group
[5] = 0–1 days, 60 mg/kg with biliary drainage group
[6] = 20 mg/kg with biliary drainage group
[7] = 60 mg/kg with biliary drainage group
[8] = 1-2 d, 20 mg/kg with biliary drainage group
[9] = 1-2 d, 60 mg/kg with biliary drainage group
[10] = 1–2 days, 20 mg/kg with biliary drainage group
[11] = 1–2 days, 60 mg/kg with biliary drainage group
[12] = 2-3 d, 20 mg/kg with biliary drainage group
[13] = 2-3 d, 60 mg/kg with biliary drainage group
[14] = 2–3 days, 20 mg/kg with biliary drainage group
[15] = 2–3 days, 60 mg/kg with biliary drainage group
[16] = 3-4d, 20 mg/kg with biliary drainage group
[17] = 3-4d, 60 mg/kg with biliary drainage group
[18] = 3–4 days, 20 mg/kg with biliary drainage group
[19] = 3–4 days, 60 mg/kg with biliary drainage group

Compound: CC[C@H](C)[C@@H]1NC(=O)CNC(=O)[C@@H]2Cc3c([nH]c4cc(O)ccc34)[S@+]([O-])C[C@H](NC(=O)CNC1=O)C(=O)N[C@@H](CC(N)=O)C(=O)N1C[C@H](O)C[C@H]1C(=O)N[C@@H]([C@@H](C)[C@@H](O)CO)C(=O)N2 [α-amanitin]
- detection rate of peptide toxins in urine [1, 3]: 100%
- daily amount excreted in urine [1, 4]: 0.0147 mg
- percentage of total urine excretion excreted daily ([1]; 0–1 days, 20 mg/kg with biliary drainage group, 20 mg/kg): more than 90%
- percentage of total urine excretion excreted daily ([1]; 0–1 days, 20 mg/kg with biliary drainage group, listed as α-Amanitin, 20 mg/kg): 96.3%
- daily amount excreted in urine [1, 5]: 0.0213 mg
- percentage of total urine excretion excreted daily ([1]; 0–1 days, 60 mg/kg with biliary drainage group, 60 mg/kg): more than 90%
- percentage of total urine excretion excreted daily ([1]; 0–1 days, 60 mg/kg with biliary drainage group, listed as α-Amanitin, 60 mg/kg): 90.9%
- Total (accumulated) amount excreted in urine [1, 6]: 0.0151 mg
- percentage of total urine excretion, Total [1, 6]: 100%
- Total (accumulated) amount excreted in urine [1, 7]: 0.0222 mg
- percentage of total urine excretion, Total [1, 7]: 100%
- time within which toxin was detected in urine [1, 6]: two
- time within which toxin was detected in urine [1, 7]: three
- detection rate of peptide toxins in urine [1, 8]: 100%
- detection rate of peptide toxins in urine [1, 9]: 100%
- daily amount excreted in urine [1, 10]: 0.0004 mg
- percentage of total urine excretion excreted daily [1, 10]: 3.7%
- daily amount excreted in urine [1, 11]: 0.0007 mg
- percentage of total urine excretion excreted daily [1, 11]: 8.9%
- detection rate of peptide toxins in urine [1, 12]: 0%
- toxin content in urine ([1]; 2-3d, 20 mg/kg with biliary drainage group, mean ± SD): 0 µg/L
- detection rate of peptide toxins in urine [1, 13]: 50%
- daily amount excreted in urine [1, 14]: 0(0%) mg
- percentage of total urine excretion excreted daily [1, 14]: 0(0%)
- daily amount excreted in urine [1, 15]: 0.0001 mg
- percentage of total urine excretion excreted daily [1, 15]: 0.2%
- detection rate of peptide toxins in urine [1, 16]: 0%
- toxin content in urine [1, 16]: 0 µg/L
- detection rate of peptide toxins in urine [1, 17]: 0%
- toxin content in urine [1, 17]: 0 µg/L
- daily amount excreted in urine [1, 18]: 0(0%) mg
- percentage of total urine excretion excreted daily [1, 18]: 0(0%)
- daily amount excreted in urine [1, 19]: 0(0%) mg
- percentage of total urine excretion excreted daily [1, 19]: 0(0%)
- share of total urine excretion in the 0–2-day urine ([1]; beagles with biliary drainage, both dose groups): more than 95%
- detection rate of peptide toxins in bile [2, 3]: 83%
- daily amount excreted in bile [2, 4]: 0.00007 mg
- percentage of total bile excretion excreted daily [2, 4]: 100%
- daily amount excreted in bile [2, 5]: 0.00061 mg
- percentage of total bile excretion excreted daily [2, 5]: 100%
- Accumulated amounts excreted in bile [2, 6]: 0.00007 mg
- percentage of total bile excretion, Accumulated amounts [2, 6]: 100%
- Accumulated amounts excreted in bile [2, 7]: 0.00061 mg
- percentage of total bile excretion, Accumulated amounts [2, 7]: 100%
- ratio of peptide toxins in bile to excretion in urine and bile [2, 6]: less than 10%
- ratio of peptide toxins in bile to excretion in urine and bile ([2]; 20 mg/kg with biliary drainage group, listed as α-Amanitin): 1.3 ± 2.4%
- ratio of peptide toxins in bile to excretion in urine and bile [2, 7]: less than 20%
- ratio of peptide toxins in bile to excretion in urine and bile ([2]; 60 mg/kg with biliary drainage group, listed as α-Amanitin): 3.1 ± 2.5%
- detection rate of peptide toxins in bile [2, 8]: 0%
- toxin concentration in bile [2, 8]: 0 µg/L
- detection rate of peptide toxins in bile [2, 9]: 0%
- toxin concentration in bile [2, 9]: 0 µg/L
- daily amount excreted in bile [2, 10]: 0(0%) mg
- percentage of total bile excretion excreted daily [2, 10]: 0(0%)
- daily amount excreted in bile [2, 11]: 0(0%) mg
- percentage of total bile excretion excreted daily [2, 11]: 0(0%)
- detection rate of peptide toxins in bile [2, 12]: 0%
- toxin concentration in bile [2, 12]: 0 µg/L
- detection rate of peptide toxins in bile [2, 13]: 0%
- toxin concentration in bile [2, 13]: 0 µg/L
- daily amount excreted in bile [2, 14]: 0(0%) mg
- percentage of total bile excretion excreted daily [2, 14]: 0(0%)
- daily amount excreted in bile [2, 15]: 0(0%) mg
- percentage of total bile excretion excreted daily [2, 15]: 0(0%)
- detection rate of peptide toxins in bile [2, 16]: 0%
- toxin concentration in bile [2, 16]: 0 µg/L
- detection rate of peptide toxins in bile [2, 17]: 0%
- toxin concentration in bile [2, 17]: 0 µg/L
- daily amount excreted in bile [2, 18]: 0(0%) mg
- percentage of total bile excretion excreted daily [2, 18]: 0(0%)
- daily amount excreted in bile [2, 19]: 0(0%) mg
- percentage of total bile excretion excreted daily [2, 19]: 0(0%)
